Test results from patent US20090246293A1 (priority 2008, published 2009).
Read-outs that look alike come from different tables or passages of the source.

Columns and labels:
[1] = system: Pseudoperonospora cubensis (PSPECU); assay: Droplet application on cucumber leaf, growth chamber (Examples 5a-d); format: in vivo; conditions: for % disease at 100 ppm of substance alone: substance alone 100 ppm; for % disease at 500 ppm of substance alone: substance alone 500 ppm, untreated check 91%; for % disease at 1000 ppm of substance alone: substance alone 1000 ppm
Experimental: Examples 5a through 5d were conducted in growth chambers on cucumber plants. Cucumbers (Cucumis sativus cv Bush Pickle Hybrid #901261) were grown from seed in 5 cm by 5 cm pots containing MetroMix™ growth medium (Scotts, Marysville, Ohio) and maintained in a glasshouse with supplementary light sources to provide a 14 hour photoperiod at 24-29° C. until the plants were in the 2-3 true leaf stage of growth and the oldest leaf was fully expanded.
For examples 5a through 5d, described below, samples of mancozeb formulated as Dithane DG NT were dissolved in water to form a ½×dilution series. Mancozeb rates were 400, 200, 100 and 50 ppm. Samples of various aldehydes, amino acids, carboxylic acids, amines and alcohols were dissolved in acetone and then mixed with aqueous solutions of mancozeb. Attractant rates in the dilute solutions were 100, 200, 500 or 1000 ppm, depending on the experiment.
Mixtures of attractant or attractant derivative plus mancozeb or mancozeb alone were applied to cucumber as a row of 5 or 7.5 ul droplets using a multi-channel pipetting device. Five droplets spaced 1 cm apart were placed along the mid-rib of the expanded cucumber leaf with the first droplet being positioned at least 1-cm from the leaf apex. Each treatment was replicated three or four times, depending on the experiment. Two to three hours after applying the treatments when droplets had dried, plants were inoculated with a suspension of sporangia of a Pseudoperonospora cubensis (PSPECU) and incubated as described in the methods for sprayed tests. When symptoms were well developed in untreated check plants, the experiment was assessed visually using a template 2 cm wide and 7 cm long with the long axis centered on the mid-rib of the treated leaf.
Reduction in percent disease was calculated by subtracting percent disease on plants receiving a mixture of mancozeb plus the specified test substance from percent disease on plants receiving mancozeb alone. The results for examples 5a-5d are shown below in Tables 7-10; the reduction in percent disease was indicated as follows: […]

[2] = system: Plasmopara viticola (PLASVI); format: in vivo; conditions: for % disease at 500 ppm of substance alone PLASVI: substance alone 500 ppm, untreated check 95; for Reduction in percent disease: aldehyde derivative 100 ppm with mancozeb, PLASVI
[3] = system: Phytophthora infestans (PHYTIN); format: in vivo; conditions: for % disease at 500 ppm of substance alone PHYTIN: substance alone 500 ppm, untreated check 95
[4] = system: Pseudoperonospora cubensis (PSPECU); conditions: in vivo
[5] = substance 100 ppm with mancozeb 200 ppm vs mancozeb alone, Table 9
[6] = substance 500 ppm with mancozeb 200 ppm vs mancozeb alone, Table 8
[7] = substance 500 ppm with mancozeb 6.25 ppm (Dithane DGNT), foliar spray, inoculated 2 to 3 hours after treatment
[8] = substance 500 ppm with mancozeb 25 ppm (Dithane DGNT), foliar spray, inoculated 2 to 3 hours after treatment
[9] = substance 100 ppm with mancozeb 200 ppm vs mancozeb alone, Table 10
[10] = substance 200 ppm with mancozeb 50 ppm vs mancozeb alone, cucumber
[11] = substance 1000 ppm with mancozeb 50 ppm vs mancozeb alone, cucumber
[12] = aldehyde derivative 100 ppm with mancozeb, Table 17
[13] = fungicide with Formulation I at 100 ppm, Table 19

CCC(C=O)CC [2-ethylbutyraldehyde]
Reduction in % Disease [1, 5]: x (0-20% reduction in percent disease) | % disease at 100 ppm of substance alone ([1]; untreated check 92%, Table 9): 65%

CCC(C)C=O (stereo not drawn) [2-methylbutyraldehyde]
Reduction in % Disease [1, 5]: x (0-20% reduction in percent disease) | Reduction in % Disease [1, 6]: x (0-20% reduction in percent disease) | % disease at 100 ppm of substance alone ([1]; untreated check 92%, Table 9): 98% | % disease at 500 ppm of substance alone [1]: 74% | Reduction in percent disease PLASVI [2, 7]: x (0-20% reduction in percent disease) | % disease at 500 ppm of substance alone PLASVI [2]: 95% | Reduction in percent disease PHYTIN [3, 8]: x (0-20% reduction in percent disease) | % disease at 500 ppm of substance alone PHYTIN [3]: 95%

CC(C)(C)CC=O [3,3-dimethylbutyraldehyde]
Reduction in % Disease [1, 5]: x (0-20% reduction in percent disease) | Reduction in % Disease [1, 6]: x (0-20% reduction in percent disease) | % disease at 100 ppm of substance alone ([1]; untreated check 92%, Table 9): 96% | % disease at 500 ppm of substance alone [1]: 75% | Reduction in percent disease PLASVI [2, 7]: x (0-20% reduction in percent disease) | % disease at 500 ppm of substance alone PLASVI [2]: 87% | Reduction in percent disease PHYTIN [3, 8]: x (0-20% reduction in percent disease) | % disease at 500 ppm of substance alone PHYTIN [3]: 95%

CC(C)=CC=O [3-methyl-2-butenaldehyde]
Reduction in % Disease [1, 5]: x (0-20% reduction in percent disease) | Reduction in % Disease [1, 6]: x (0-20% reduction in percent disease) | % disease at 100 ppm of substance alone ([1]; untreated check 92%, Table 9): 100% | % disease at 500 ppm of substance alone [1]: 81% | Reduction in percent disease PLASVI [2, 7]: xxx (36-50% reduction in percent disease) | % disease at 500 ppm of substance alone PLASVI [2]: 95% | Reduction in percent disease PHYTIN [3, 8]: x (0-20% reduction in percent disease) | % disease at 500 ppm of substance alone PHYTIN [3]: 95%

CCC(C)C(C)=O (stereo not drawn) [3-methyl-2-pentanone]
Reduction in % Disease [1, 9]: x (0-20% reduction in percent disease) | % disease at 100 ppm of substance alone ([1]; untreated check 100%, Table 10): 100%

CC(=O)CC(C)C [4-methyl-2-pentanone]
Reduction in % Disease [1, 9]: x (0-20% reduction in percent disease) | % disease at 100 ppm of substance alone ([1]; untreated check 100%, Table 10): 93%

N[C@@H](CC(=O)O)C(=O)O [Aspartic acid]
Reduction in % Disease [1, 10]: xx (21-35% reduction in percent disease) | Reduction in % Disease [1, 11]: xx (21-35% reduction in percent disease) | % disease at 1000 ppm of substance alone ([1]; untreated check 100%): 100%

CC(C)C/C=N/N(C)c1ccccc1 [Compound AA]
Reduction in percent disease PHYTIN [3, 12]: x (0-20% reduction in percent disease)

CC(C)CC=NNC(=O)c1cccc(C(=O)N/N=C/CC(C)C)c1 [Compound C]
Reduction in percent disease [4]: xxx (key: x: 0-20% reduction in percent disease; xx: 21-35% reduction in percent disease; xxx: 36-50% reduction in percent disease; xxxx: >50% reduction in percent disease) | Reduction in percent disease ([2]; Table 13): xx (21-35% reduction in percent disease) | Reduction in percent disease ([2]; Table 15): xx (21-35% reduction in percent disease)

CC(C)C/C=N/NC(N)=O [Compound D]
Reduction in percent disease [4]: xx (key: x: 0-20% reduction in percent disease; xx: 21-35% reduction in percent disease; xxx: 36-50% reduction in percent disease; xxxx: >50% reduction in percent disease) | Reduction in percent disease ([2]; Table 13): x (0-20% reduction in percent disease)

CC(C)C/C=N/NC(=O)CCCC(=O)N/N=C/CC(C)C [Compound E]
Reduction in percent disease [4]: xxx (key: x: 0-20% reduction in percent disease; xx: 21-35% reduction in percent disease; xxx: 36-50% reduction in percent disease; xxxx: >50% reduction in percent disease) | Reduction in percent disease ([2]; Table 13): xx (21-35% reduction in percent disease)

CC(C)C/C=N/NC(=O)c1ccccc1 [Compound I]
Reduction in percent disease [4]: xx (key: x: 0-20% reduction in percent disease; xx: 21-35% reduction in percent disease; xxx: 36-50% reduction in percent disease; xxxx: >50% reduction in percent disease)

CC(C)C/C=N/NC(=O)c1ccc(O)cc1 [Compound V]
Reduction in percent disease PHYTIN [3, 12]: xx (21-35% reduction in percent disease)

CC(C)C/C=N/N(Cc1ccccc1)Cc1ccccc1 [Compound W]
Reduction in percent disease PHYTIN [3, 12]: xx (21-35% reduction in percent disease)

C=CCON=CCC(C)C [Compound X]
Reduction in percent disease PHYTIN [3, 12]: xx (21-35% reduction in percent disease)

CC(C)CC=NOCc1ccccc1 [Compound Y]
Reduction in percent disease PHYTIN [3, 12]: x (0-20% reduction in percent disease)

CC(C)C/C=N/N1CCCCC1 [Compound Z]
Reduction in percent disease PHYTIN [3, 12]: xx (21-35% reduction in percent disease)

O=CCC1CC1 [Cyclopropylacetaldehyde]
Reduction in % Disease [1, 5]: x (0-20% reduction in percent disease) | Reduction in % Disease [1, 6]: x (0-20% reduction in percent disease) | % disease at 100 ppm of substance alone ([1]; untreated check 92%, Table 9): 85% | % disease at 500 ppm of substance alone [1]: 90% | Reduction in percent disease PLASVI [2, 7]: xx (21-35% reduction in percent disease) | % disease at 500 ppm of substance alone PLASVI [2]: 95% | Reduction in percent disease PHYTIN [3, 8]: x (0-20% reduction in percent disease) | % disease at 500 ppm of substance alone PHYTIN [3]: 95%

O=[N+]([O-])c1cc(C(F)(F)F)c(Cl)c([N+](=O)[O-])c1Nc1ncc(C(F)(F)F)cc1Cl [Fluazinam, reference compound]
Reduction in percent disease PLASVI [2, 13]: xxx (36-50% reduction in percent disease) | Reduction in percent disease PHYTIN [3, 13]: xxx (36-50% reduction in percent disease)

N[C@@H](CCC(=O)O)C(=O)O [Glutamic acid]
Reduction in % Disease [1, 10]: xx (21-35% reduction in percent disease) | Reduction in % Disease [1, 6]: x (0-20% reduction in percent disease) | Reduction in % Disease [1, 11]: x (0-20% reduction in percent disease) | % disease at 500 ppm of substance alone [1]: 90% | % disease at 1000 ppm of substance alone ([1]; untreated check 100%): 100% | Reduction in percent disease PLASVI [2, 7]: xxx (36-50% reduction in percent disease) | % disease at 500 ppm of substance alone PLASVI [2]: 93% | Reduction in percent disease PHYTIN [3, 8]: xx (21-35% reduction in percent disease) | % disease at 500 ppm of substance alone PHYTIN [3]: 95%

CC(C)CCO [Isoamyl alcohol]
Reduction in % Disease [1, 10]: xx (21-35% reduction in percent disease) | Reduction in % Disease [1, 11]: x (0-20% reduction in percent disease) | % disease at 1000 ppm of substance alone ([1]; untreated check 100%): 100%

CC(C)CCN [Isoamyl amine]
Reduction in % Disease [1, 10]: xxx (36-50% reduction in percent disease) | Reduction in % Disease [1, 11]: xxx (36-50% reduction in percent disease) | % disease at 1000 ppm of substance alone ([1]; untreated check 100%): 100%

CC(C)CO [Isobutanol]
Reduction in % Disease [1, 10]: x (0-20% reduction in percent disease) | Reduction in % Disease [1, 6]: x (0-20% reduction in percent disease) | Reduction in % Disease [1, 11]: xxxx (>50% reduction in percent disease) | % disease at 500 ppm of substance alone [1]: 95% | % disease at 1000 ppm of substance alone ([1]; untreated check 100%): 100% | Reduction in percent disease PLASVI [2, 7]: xxxx (>50% reduction in percent disease) | % disease at 500 ppm of substance alone PLASVI [2]: 78% | Reduction in percent disease PHYTIN [3, 8]: xxx (36-50% reduction in percent disease) | % disease at 500 ppm of substance alone PHYTIN [3]: 95%

CC(C)C=O [Isobutyraldehyde]
Reduction in % Disease [1, 5]: x (0-20% reduction in percent disease) | % disease at 100 ppm of substance alone ([1]; untreated check 92%, Table 9): 97%

CC(C)CCC(=O)O [Isocaproic acid]
Reduction in % Disease [1, 10]: xxx (36-50% reduction in percent disease) | Reduction in % Disease [1, 6]: x (0-20% reduction in percent disease) | Reduction in % Disease [1, 11]: xxx (36-50% reduction in percent disease) | % disease at 500 ppm of substance alone [1]: 88% | % disease at 1000 ppm of substance alone ([1]; untreated check 100%): 100% | Reduction in percent disease PLASVI [2, 7]: xxx (36-50% reduction in percent disease) | % disease at 500 ppm of substance alone PLASVI [2]: 93% | Reduction in percent disease PHYTIN [3, 8]: xxx (36-50% reduction in percent disease) | % disease at 500 ppm of substance alone PHYTIN [3]: 95%

CC(C)CC(=O)O [Isovaleric acid]
Reduction in % Disease [1, 10]: xx (21-35% reduction in percent disease) | Reduction in % Disease [1, 11]: xx (21-35% reduction in percent disease) | % disease at 1000 ppm of substance alone ([1]; untreated check 100%): 100%

CON=C(C(=O)OC)c1ccccc1CON=C(C)c1cccc(C(F)(F)F)c1 [Trifloxystrobin, reference compound]
Reduction in percent disease PLASVI [2, 13]: x (0-20% reduction in percent disease) | Reduction in percent disease PHYTIN [3, 13]: x (0-20% reduction in percent disease)

CCCCC=O [Valeraldehyde]
Reduction in % Disease [1, 5]: x (0-20% reduction in percent disease) | Reduction in % Disease [1, 6]: x (0-20% reduction in percent disease) | % disease at 100 ppm of substance alone ([1]; untreated check 92%, Table 9): 93% | % disease at 500 ppm of substance alone [1]: 94% | Reduction in percent disease PLASVI [2, 7]: x (0-20% reduction in percent disease) | % disease at 500 ppm of substance alone PLASVI [2]: 95% | Reduction in percent disease PHYTIN [3, 8]: x (0-20% reduction in percent disease) | % disease at 500 ppm of substance alone PHYTIN [3]: 95%
